Data on 24 molecules can be found in patent publication US10414774B2, “Compound useful for altering the levels of bile acids for the treatment of diabetes and cardiometabolc disease” (Merck Sharp & Dohme Corp., priority 2016, dated 2019).

The target in one assay is T1, Human CYP8B1 (Homo sapiens, UniProt Q9UNU6).
T1 sequence (Q9UNU6 1-501): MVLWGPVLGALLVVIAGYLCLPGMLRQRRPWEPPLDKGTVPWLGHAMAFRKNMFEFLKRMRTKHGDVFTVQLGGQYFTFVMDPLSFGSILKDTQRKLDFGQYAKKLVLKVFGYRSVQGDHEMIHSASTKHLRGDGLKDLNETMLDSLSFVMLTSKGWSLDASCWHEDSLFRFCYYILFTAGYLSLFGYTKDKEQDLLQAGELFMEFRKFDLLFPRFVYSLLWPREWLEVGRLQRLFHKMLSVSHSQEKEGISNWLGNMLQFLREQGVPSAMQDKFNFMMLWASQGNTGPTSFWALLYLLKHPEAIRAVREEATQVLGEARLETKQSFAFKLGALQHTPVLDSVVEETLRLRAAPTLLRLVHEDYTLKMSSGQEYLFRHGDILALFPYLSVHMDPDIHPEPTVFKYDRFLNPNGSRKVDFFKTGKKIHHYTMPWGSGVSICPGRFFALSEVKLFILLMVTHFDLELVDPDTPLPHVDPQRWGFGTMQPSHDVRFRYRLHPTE
Kind of assay: Human CYP8B1 Liver Microsome Assay. As to conditions: Human CYP8B1 IC50, human liver microsomes; substrate 7a-hydroxy-4-cholesten-3-one, NADPH; RapidFire MS detection of 7α,12α-dihydroxy-4-cholesten-3-one.
Description: To a 384 well polypropylene plate (Corning 3656), 250 nl of inhibitor in 100% DMSO (1.25% final DMSO concentration) was pre-plated using an Echo liquid handler (Labcyte Inc.). Human liver microsomes (Xenotech) were diluted in of 0.1 M phosphate buffer, pH 7.4, at a concentration of 65 μg/ml and 15 μL was added to the 384 well plate. The plates were incubated at ambient room temperature for 30 minutes. After pre-incubation with inhibitor, the reaction was initiated by adding 5 μl of substrate solution (4.0 μM 7a-hydroxy-4-cholesten-3-one (Toronto Research Chemicals), 2 mM of NADPH (Sigma), 0.1 M phosphate buffer (pH 7.4). The reaction was carried out for 45 minutes at ambient room temperature and was quenched by the addition of 50 μl of acetonitrile+0.1% vol/vol formic acid (FA)+300 nM 7α-hydroxy-4-cholesten-3-one-d7 (Toronto Research Chemicals). The plates were sealed and centrifuged at 3000 rpm for 5 minutes. Plates were loaded onto the Agilent RapidFire RF300 HTMS system, wherein samples were sipped for 600 ms, and the sip sensor detection signals the diversion of sample from the loop onto a C4 solid phase extraction (SPE) cartridge, where salts are washed off for 2500 ms with a mobile phase of water with 0.1% vol/vol FA at a flow rate of 1.5 ml/min. The column path was switched, and the sample was eluted off the cartridge and flowed into the mass spectrometer for 3000 ms with a mobile phase of acetonitrile and 0.1% vol/vol FA at a flow rate of 1.25 ml/min. The aspirator tip was washed separately with water and acetonitrile between sample aspirations (each for 600 ms) to minimize carryover contamination. Mass spectrometry was carried out using a Sciex API4000 triple quadrupole mass spectrometer (Applied Biosystems, Concord, ON, Canada) equipped with electrospray ionization (ESI) operated in the positive-ion mode. The product 7α,12α-dihydroxy-4-cholesten-3-one and internal standard 7α-hydroxy-4-cholsten-3-one-d7 were detected using multiple reaction monitoring (MRM) with Q1/Q3 transitions at m/z 417.3 to 381.3 and m/z 408.3 to 390.3, respectively, with a dwell time of 100 ms and a collision energy of 24 V for each transition. The mass spectrometer used an ESI voltage of 5000 V and a source temperature of 650° C. Extracted ion chromatograms for each transition were integrated and processed using the RapidFire Integrator software. The data for each well were normalized by monitoring product conversion with the ratio of AUCproduct/(AUCinternal standard). The data was then fitted to a four parameter logistic fit using ActivityBase Software to calculate an IC50 of the inhibitor.
The term IC50 denotes the midpoint of a concentration-inhibition curve. On to `C[C@@H]1CN(c2c(C#N)c(Cl)nc3ccc(Cl)cc23)CC[C@@H]1C(=O)N1CCn2c(nnc2C(F)(F)F)C1` [Example 56, 2,6-dichloro-4-[(3S,4S)-3-methyl-4-{[3-(trifluoromethyl)-5,6-dihydro[1,2,4]triazolo[4,3-a]pyrazin-7(8H)-yl]carbonyl}piperidin-1-yl]quinoline-3-carbonitrile], for which half-maximal inhibition (IC50) was put at 1.5 nM. Same read-out and setting: the same measure for `N#Cc1cnc2ccc(Cl)cc2c1C1CCC(C(=O)N2CCn3c(nnc3C(F)(F)F)C2)CC1` (mixture of isomers) [Example 124, 6-chloro-4-(4-{[3-(trifluoromethyl)-5,6-dihydro[1,2,4]triazolo[4,3-a]pyrazin-7(8H)-yl]carbonyl}cyclohexyl)quinoline-3-carbonitrile]: 110 nM; for `CC1CN(C(=O)C2CCN(c3c(C#N)cnc4ccc(Cl)cc34)CC2)Cc2nnc(C(F)(F)F)n21` (stereo not drawn) [Example 112, 6-chloro-4-(4-{[5-methyl-3-(trifluoromethyl)-5,6-dihydro[1,2,4]triazolo[4,3-a]pyrazin-7(8H)-yl]carbonyl}piperidin-1-yl)quinoline-3-carbonitrile]: 69.7 nM.

Molecule `N#Cc1cnc2ccc(Cl)cc2c1N1CCC(C(=O)N2CCc3c(C4CC4)n[nH]c3C2)CC1` [Example 107, 6-chloro-4-{4-[(3-cyclopropyl-1,4,5,7-tetrahydro-6H-pyrazolo[3,4-c]pyridin-6-yl)carbonyl]piperidin-1-yl}quinoline-3-carbonitrile] gave an IC50 of 5.6 nM.

`COc1ccc2ncc(C#N)c(N3CCC(C(=O)N4CCn5c(nnc5C(F)(F)F)C4)CC3)c2c1` [Example 46, 6-methoxy-4-(4-(3-(trifluoromethyl)-5,6,7,8-tetrahydro-[1,2,4]triazolo[4,3-a]pyrazine-7-carbonyl)piperidin-1-yl)quinoline-3-carbonitrile] returned an IC50 of 68 nM. The molecule `C[C@@H]1CN(c2c(C#N)cnc3c(Cl)cccc23)CC[C@@H]1C(=O)N1CCn2c(nnc2C(F)(F)F)C1` [Example 14, 8-chloro-4-[(3S,4S)-3-methyl-4-{[3-(trifluoromethyl)-5,6-dihydro[1,2,4]triazolo[4,3-a]pyrazin-7(8H)-yl]carbonyl}piperidin-1-yl]quinoline-3-carbonitrile] returned an IC50 of 1.7 nM.

Molecule `COc1ccc2c(N3CCC(C(=O)N4CCn5c(C)nnc5C4)C(C)C3)c(C#N)cnc2c1` (stereo not drawn) [Example 84, 7-methoxy-4-{3-methyl-4-[(3-methyl-5,6-dihydro[1,2,4]triazolo[4,3-a]pyrazin-7(8H)-yl)carbonyl]piperidin-1-yl}quinoline-3-carbonitrile] showed an IC50 of 3.3 nM.

With `CC(C)Oc1ccc2c(N3CC[C@H](C(=O)N4CCn5c(nnc5C(F)(F)F)C4)[C@H](C)C3)c(C#N)cnc2c1F` [Example 37, 8-fluoro-4-[(3S,4S)-3-methyl-4-{[3-(trifluoromethyl)-5,6-dihydro[1,2,4]triazolo[4,3-a]pyrazin-7(8H)-yl]carbonyl}piperidin-1-yl]-7-(propan-2-yloxy)quinoline-3-carbonitrile], it took 0.54 nM to reach half-maximal inhibition (IC50). Same read-out and setting: the same measure for `N#Cc1cnc2ccc(Cl)cc2c1N1CCN(C(=O)N2CCn3c(nnc3C(F)(F)F)C2)C2(CC2)C1` [Example 127, 6-chloro-4-(4-{[3-(trifluoromethyl)-5,6-dihydro[1,2,4]triazolo[4,3-a]pyrazin-7(8H)-yl]carbonyl}-4,7-diazaspiro[2.5]oct-7-yl)quinoline-3-carbonitrile]: 98 nM; for `CO[C@@H]1CN(c2c(C#N)cnc3ccc(Cl)cc23)CC[C@@H]1C(=O)N1CCn2c(nnc2C(F)(F)F)C1` [Example 72a, 6-chloro-4-[(3S,4S)-3-methoxy-4-{[3-(trifluoromethyl)-5,6-dihydro[1,2,4]triazolo[4,3-a]pyrazin-7(8H)-yl]carbonyl}piperidin-1-yl]quinoline-3-carbonitrile]: 22 nM; for `C[C@@H]1CN(c2c(C#N)c(CO)nc3ccc(Cl)cc23)CC[C@@H]1C(=O)N1CCn2c(nnc2C(F)(F)F)C1` [Example 61, 6-chloro-2-(hydroxymethyl)-4-[(3S,4S)-3-methyl-4-{[3-(trifluoromethyl)-5,6-dihydro[1,2,4]triazolo[4,3-a]pyrazin-7(8H)-yl]carbonyl}piperidin-1-yl]quinoline-3-carbonitrile]: 4.5 nM. In turn, `CC1(C)CN(C(=O)C2CCN(c3c(C#N)cnc4ccc(Cl)cc34)CC2)Cc2nnc(C(F)(F)F)n21` [Example 109, 6-chloro-4-(4-{[5,5-dimethyl-3-(trifluoromethyl)-5,6-dihydro[1,2,4]triazolo[4,3-a]pyrazin-7(8H)-yl]carbonyl}piperidin-1-yl)quinoline-3-carbonitrile] registered an IC50 of 375 nM.

Molecule `Cc1nc2ccc(F)c(F)c2c(N2CCC(C(=O)N3CCn4c(nnc4C(F)(F)F)C3)CC2)c1C#N` [Example 51, 5,6-difluoro-2-methyl-4-(4-(3-(trifluoromethyl)-5,6,7,8-tetrahydro-[1,2,4]triazolo[4,3-a]pyrazine-7-carbonyl)piperidin-1-yl)quinoline-3-carbontrile] had an IC50 of 774 nM.

On to `Cc1nc2ccc(Cl)cc2c(N2CC[C@H](C(=O)N3CCn4nccc4C3)[C@H](C)C2)c1C#N` [Example 96, 6-chloro-4-[(3S,4S)-4-(6,7-dihydropyrazolo[1,5-a]pyrazin-5(4H)-ylcarbonyl)-3-methylpiperidin-1-yl]-2-methylquinoline-3-carbonitrile], for which the IC50 is 8.6 nM. As for `CC1CC(C(=O)N2CCn3c(nnc3C(F)(F)F)C2)CCN1c1c(C#N)cnc2ccc(Cl)cc12` (single isomer, unassigned) [Example 73d, 6-chloro-4-[(2R,4S) or (2S,4R)-2-methyl-4-{[3-(trifluoromethyl)-5,6-dihydro[1,2,4]triazolo[4,3-a]pyrazin-7(8H)-yl]carbonyl}piperidin-1-yl]quinoline-3-carbonitrile], the IC50 was found to be 636 nM.

For the molecule `COc1ccc2nc(C)c(C#N)c(N3CCC(C(=O)N4CCn5c(nnc5C(F)(F)F)C4)CC3)c2c1` [Example 47, 6-methoxy-2-methyl-4-(4-(3-(trifluoromethyl)-5,6,7,8-tetrahydro-[1,2,4]triazolo[4,3-a]pyrazin-7-carbonyl)piperidin-1-yl)quinoline-3-carbonitrile], the 50% inhibitory concentration (IC50) came out at 564 nM. Take `Cc1nc2ccc(Br)cc2c(N2CCC(C(=O)N3CCn4c(nnc4C(F)(F)F)C3)CC2)c1C#N` [Example 48, 6-bromo-2-methyl-4-(4-(3-(trifluoromethyl)-5,6,7,8-tetrahydro-[1,2,4]triazolo[4,3-a]pyrazine-7-carbonyl)piperidin-1-yl)quinoline-3-carbonitrile]: the midpoint of inhibition, the IC50, lay at 109 nM.

The molecule `CC(C)COc1ccc2c(N3CC[C@H](C(=O)N4CCn5c(nnc5C(F)(F)F)C4)[C@H](C)C3)c(C#N)cnc2c1` [Example 101, 7-(2-methylpropoxy)-4-[(3S,4S)-3-methyl-4-{[3-(trifluoromethyl)-5,6-dihydro[1,2,4]triazolo[4,3-a]pyrazin-7(8H)-yl]carbonyl}piperidin-1-yl]quinoline-3-carbonitrile] showed an IC50 of 0.33 nM.

In turn, `COc1ccc2c(N3CCC(C(=O)N4CCn5c(nnc5C(F)(F)F)C4)CC3)c(C#N)cnc2c1F` [Example 42, 8-fluoro-7-methoxy-4-(4-{[3-(trifluoromethyl)-5,6-dihydro[1,2,4]triazolo[4,3-a]pyrazin-7(8H)-yl]carbonyl}piperidin-1-yl)quinoline-3-carbonitrile] registered an IC50 of 49 nM. On to `C[C@@H]1CN(c2c(C#N)cnc3ccc(Cl)cc23)CC[C@@H]1C(=O)N1CCn2c(nnc2C(F)(F)F)C1` (single isomer, unassigned) [Example 116a], for which the IC50 stood at 0.4 nM. Regarding `CC(C)c1ncc2n1CCN(C(=O)C1CCN(c3c(C#N)cnc4ccc(Cl)cc34)CC1)C2` [Example 115, 6-chloro-4-(4-{[3-(propan-2-yl)-5,6-dihydroimidazo[1,5-a]pyrazin-7(8H)-yl]carbonyl}piperidin-1-yl)quinoline-3-carbonitrile], the IC50 is 1670 nM. Same read-out and setting: then `COc1ccc2c(N3CC[C@@H](C(=O)N4CCn5c(nnc5C(F)(F)F)C4)[C@@H](C4CC4)C3)c(C#N)cnc2c1F` [Example 77a, 4-[(3R,4R)-3-cyclopropyl-4-{[3-(trifluoromethyl)-5,6-dihydro[1,2,4]triazolo[4,3-a]pyrazin-7(8H)-yl]carbonyl}piperidin-1-yl]-8-fluoro-7-methoxyquinoline-3-carbonitrile], with 231 nM; and `C[C@@H]1CN(c2c(C#N)c[n+]([O-])c3ccc(Cl)cc23)CC[C@@H]1C(=O)N1CCn2c(nnc2C(F)(F)F)C1` [Example 123, 6-chloro-3-cyano-4-((3S,4S)-3-methyl-4-(3-(trifluoromethyl)-5,6,7,8-tetrahydro-[1,2,4]triazolo[4,3-a]pyrazine-7-carbonyl)piperidin-1-yl)quinoline 1-oxide], with 1.9 nM.

The assay is the same for the next values; noted with them: read-out: Human CYP8B1 IC50; human liver microsomes; substrate 7a-hydroxy-4-cholesten-3-one, NADPH; RapidFire MS detection of 7α,12α-dihydroxy-4-cholesten-3-one.
Regarding `C[C@@H]1CN(c2c(C#N)cnc3ccc(C(F)(F)F)cc23)CC[C@@H]1C(=O)N1CCn2c(nnc2C(F)(F)F)C1` (single isomer, unassigned) [Example 119a], the IC50 is 41.4 nM.
